Reference: PubChem BioAssay (NCI)
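The concentration for 50% growth inhibition is given as GI50. TGI: total growth inhibition.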

Key:
Assay in all cases: DTP human tumour cell line panel, 384-well format
HCT-116 colon = test system: HCT-116 colon
OVCAR-8 ovarian = test system: OVCAR-8 ovarian
MALME-3M melanoma = test system: MALME-3M melanoma
HOP-62 NSCLC = test system: HOP-62 NSCLC
MDA-MB-435 melanoma = test system: MDA-MB-435 melanoma
KM12 colon = test system: KM12 colon
HOP-92 NSCLC = test system: HOP-92 NSCLC
SK-OV-3 ovarian = test system: SK-OV-3 ovarian
SF-539 CNS = test system: SF-539 CNS
MCF7 breast = test system: MCF7 breast
A549 NSCLC = test system: A549 NSCLC
U251 glioblastoma = test system: U251 glioblastoma
IGROV1 ovarian = test system: IGROV1 ovarian
BT-549 breast = test system: BT-549 breast
COLO 205 colon = test system: COLO 205 colon
NCI/ADR-RES ovarian = test system: NCI/ADR-RES ovarian
SNB-19 CNS = test system: SNB-19 CNS
EKVX NSCLC = test system: EKVX NSCLC
T-47D breast = test system: T-47D breast
CAKI-1 renal = test system: CAKI-1 renal
SR leukemia = test system: SR leukemia
SF-295 CNS = test system: SF-295 CNS
ACHN renal = test system: ACHN renal
OVCAR-4 ovarian = test system: OVCAR-4 ovarian
SN12C renal = test system: SN12C renal
NCI-H522 lung = test system: NCI-H522 lung
OVCAR-5 ovarian = test system: OVCAR-5 ovarian
SW-620 colon = test system: SW-620 colon
SK-MEL-28 melanoma = test system: SK-MEL-28 melanoma
MDA-MB-468 breast = test system: MDA-MB-468 breast
TK-10 renal = test system: TK-10 renal
LOX IMVI melanoma = test system: LOX IMVI melanoma
NCI-H460 NSCLC = test system: NCI-H460 NSCLC
UACC-257 melanoma = test system: UACC-257 melanoma
NCI-H226 lung = test system: NCI-H226 lung
A498 renal = test system: A498 renal
HCC-2998 colon = test system: HCC-2998 colon
786-0 renal = test system: 786-0 renal
HT29 colon = test system: HT29 colon
PC-3 prostate = test system: PC-3 prostate
MDA-MB-231 breast = test system: MDA-MB-231 breast
HS 578T breast = test system: HS 578T breast
RPMI-8226 leukemia = test system: RPMI-8226 leukemia
NCI-H23 lung = test system: NCI-H23 lung
NCI-H322M lung = test system: NCI-H322M lung
HCT-15 colon = test system: HCT-15 colon
RXF 393 renal = test system: RXF 393 renal
MOLT-4 leukemia = test system: MOLT-4 leukemia
DU-145 prostate = test system: DU-145 prostate
UO-31 renal = test system: UO-31 renal

CNC(=O)c1ccccc1Sc1ccc2c(/C=C/c3ccccn3)n[nH]c2c1
GI50 (HCT-116 colon): 4.39 µM | TGI (HCT-116 colon): > 100 µM | GI50 (OVCAR-8 ovarian): 14.3 µM | TGI (OVCAR-8 ovarian): 42.5 µM | GI50 (MALME-3M melanoma): 13.6 µM | TGI (MALME-3M melanoma): 85.9 µM | GI50 (HOP-62 NSCLC): 4.4 µM | TGI (HOP-62 NSCLC): > 100 µM | GI50 (MDA-MB-435 melanoma): > 100 µM | TGI (MDA-MB-435 melanoma): > 100 µM | GI50 (KM12 colon): 1.11 µM | TGI (KM12 colon): > 100 µM | GI50 (HOP-92 NSCLC): 20.3 µM | TGI (HOP-92 NSCLC): > 100 µM | GI50 (SK-OV-3 ovarian): 65.7 µM | TGI (SK-OV-3 ovarian): > 100 µM | GI50 (SF-539 CNS): 1.01 µM | TGI (SF-539 CNS): 7.16 µM | GI50 (MCF7 breast): 16.2 µM | TGI (MCF7 breast): > 100 µM | GI50 (A549 NSCLC): 7.86 µM | TGI (A549 NSCLC): > 100 µM | GI50 (U251 glioblastoma): 19.1 µM | TGI (U251 glioblastoma): > 100 µM | GI50 (IGROV1 ovarian): 36.1 µM | TGI (IGROV1 ovarian): > 100 µM | GI50 (BT-549 breast): 1.22 µM | TGI (BT-549 breast): 6.94 µM | GI50 (COLO 205 colon): 2.52 µM | TGI (COLO 205 colon): > 100 µM | GI50 (NCI/ADR-RES ovarian): 5.09 µM | TGI (NCI/ADR-RES ovarian): 18.4 µM | GI50 (SNB-19 CNS): 66 µM | TGI (SNB-19 CNS): > 100 µM | GI50 (EKVX NSCLC): 29.9 µM | TGI (EKVX NSCLC): > 100 µM | GI50 (T-47D breast): 2.57 µM | TGI (T-47D breast): 16.1 µM | GI50 (CAKI-1 renal): 22 µM | TGI (CAKI-1 renal): > 100 µM | GI50 (SR leukemia): 0.356 µM | TGI (SR leukemia): 0.539 µM | GI50 (SF-295 CNS): 3.59 µM | TGI (SF-295 CNS): 69 µM | GI50 (ACHN renal): 13.8 µM | TGI (ACHN renal): > 100 µM | GI50 (OVCAR-4 ovarian): 19.3 µM | TGI (OVCAR-4 ovarian): > 100 µM | GI50 (SN12C renal): 4.88 µM | TGI (SN12C renal): 79.7 µM | GI50 (NCI-H522 lung): 1.35 µM | TGI (NCI-H522 lung): 13.8 µM | GI50 (OVCAR-5 ovarian): > 100 µM | TGI (OVCAR-5 ovarian): > 100 µM | GI50 (SW-620 colon): 46.7 µM | TGI (SW-620 colon): > 100 µM | GI50 (SK-MEL-28 melanoma): 22.4 µM | TGI (SK-MEL-28 melanoma): > 100 µM | GI50 (MDA-MB-468 breast): 1.92 µM | TGI (MDA-MB-468 breast): 5.88 µM | GI50 (TK-10 renal): > 100 µM | TGI (TK-10 renal): > 100 µM | GI50 (LOX IMVI melanoma): 5.04 µM | TGI (LOX IMVI melanoma): 41.7 µM | GI50 (NCI-H460 NSCLC): 2.59 µM | TGI (NCI-H460 NSCLC): 45 µM | GI50 (UACC-257 melanoma): 26.7 µM | TGI (UACC-257 melanoma): 92.2 µM | GI50 (NCI-H226 lung): 1.06 µM | TGI (NCI-H226 lung): 7.68 µM | GI50 (A498 renal): 35.4 µM | TGI (A498 renal): > 100 µM | GI50 (HCC-2998 colon): > 100 µM | TGI (HCC-2998 colon): > 100 µM | GI50 (786-0 renal): 42.1 µM | TGI (786-0 renal): > 100 µM | GI50 (HT29 colon): 46.5 µM | TGI (HT29 colon): > 100 µM | GI50 (PC-3 prostate): 20.2 µM | TGI (PC-3 prostate): > 100 µM | GI50 (MDA-MB-231 breast): 21.7 µM | TGI (MDA-MB-231 breast): > 100 µM | GI50 (HS 578T breast): 2.17 µM | TGI (HS 578T breast): 35.7 µM | GI50 (RPMI-8226 leukemia): 3.77 µM | TGI (RPMI-8226 leukemia): 13.9 µM | GI50 (NCI-H23 lung): 15.5 µM | TGI (NCI-H23 lung): > 100 µM | GI50 (NCI-H322M lung): 20.7 µM | TGI (NCI-H322M lung): 73.7 µM | GI50 (HCT-15 colon): 4.68 µM | TGI (HCT-15 colon): > 100 µM | GI50 (RXF 393 renal): 4.61 µM | TGI (RXF 393 renal): 31.1 µM | GI50 (MOLT-4 leukemia): 0.175 µM | TGI (MOLT-4 leukemia): 0.328 µM | GI50 (DU-145 prostate): 30.1 µM | TGI (DU-145 prostate): > 100 µM | GI50 (UO-31 renal): 32.8 µM | TGI (UO-31 renal): > 100 µM
